Several values for one entry are separate records, joined by “and”; a condition that tells them apart may be missing. Equal values may be shown once.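 A five-concentration, 48-hour dose response in 96-well plates underlies each endpoint, interpolated linearly between surrounding concentrations. Here, GI50 denotes the concentration required for 50% inhibition of growth. TGI denotes the concentration required for complete inhibition of growth.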
Columns and labels:
Assay in all cases: DTP human tumour cell line panel, 48 h
SF-539 CNS = tested on: SF-539 CNS
DU-145 prostate = tested on: DU-145 prostate
COLO 205 colon = tested on: COLO 205 colon
SK-MEL-5 melanoma = tested on: SK-MEL-5 melanoma
NCI-H522 lung = tested on: NCI-H522 lung
MCF7 breast = tested on: MCF7 breast
MALME-3M melanoma = tested on: MALME-3M melanoma
BT-549 breast = tested on: BT-549 breast
A549 NSCLC = tested on: A549 NSCLC
SF-295 CNS = tested on: SF-295 CNS

Row | Compound | GI50 (SF-539 CNS) | TGI (SF-539 CNS) | GI50 (DU-145 prostate) | TGI (DU-145 prostate) | GI50 (COLO 205 colon) | TGI (COLO 205 colon) | GI50 (SK-MEL-5 melanoma) | TGI (SK-MEL-5 melanoma) | GI50 (NCI-H522 lung) | TGI (NCI-H522 lung) | TGI (MCF7 breast) | GI50 (MALME-3M melanoma) | TGI (MALME-3M melanoma) | GI50 (BT-549 breast) | TGI (BT-549 breast) | GI50 (A549 NSCLC) | TGI (A549 NSCLC) | GI50 (SF-295 CNS) | TGI (SF-295 CNS) | GI50 (MCF7 breast)
1 | Cn1ncc(Cl)c1-c1cc(C(=O)N[C@H](CN)Cc2cccc(F)c2)sc1Cl | 0.313 µM and 0.325 µM | 3.22 µM and 4.64 µM | 2.28 µM and 5.86 µM | > 10 µM and 19.4 µM | 0.546 µM and 1.25 µM | 1.84 µM and 5.21 µM | 1.96 µM and 3.64 µM | 3.99 µM and 8.3 µM | 1.41 µM and 6.34 µM | > 5.8 µM and 20.3 µM | 2.6 µM and 11.4 µM | 1.08 µM and 0.969 µM | 2.61 µM and 2.99 µM | 0.518 µM and 1.33 µM | 3.35 µM and 7.5 µM | 0.946 µM and 2.32 µM | > 10 µM and 16 µM | 0.255 µM and 0.486 µM | 2.95 µM and 7.01 µM | 
2 | COC[C@H](NC(=O)c1cnc(C)s1)C(=O)N[C@@H](COC)C(=O)N[C@@H](Cc1ccccc1)C(=O)[C@@]1(C)CO1 | 27.7 µM | > 74.1 µM | 37.1 µM | > 100 µM | 37.4 µM | > 100 µM | 19.9 µM | 47.1 µM | 12.8 µM | 63 µM | > 100 µM | 22 µM | 64 µM | 14.3 µM | 42.6 µM | 42.9 µM | > 100 µM | 20.1 µM | 72.7 µM | 11.1 µM
3 | CC1(C)N=C(N)N=C(N)N1c1ccc(CNC(=O)Nc2ccc(S(=O)(=O)F)c(Cl)c2)c(Cl)c1 | 1.11 µM | 25 µM | 0.76 µM | > 100 µM | 0.867 µM | > 100 µM | 0.88 µM | > 74.7 µM | 0.624 µM | 40.2 µM | > 100 µM | 17.3 µM | > 100 µM | 8.51 µM | > 100 µM | 0.56 µM | > 100 µM | 5.41 µM | > 100 µM | 0.536 µM
4 | C[C@@H]1C[C@H](N)C[C@H](c2ccncc2NC(=O)c2ccc(F)c(-c3c(F)cccc3F)n2)C1 | 11.3 µM and > 10 µM | 23.5 µM and > 10 µM | 13.5 µM and > 10 µM | 26.3 µM and > 10 µM | 4.38 µM and 3.84 µM | 22.1 µM and > 10 µM | 13 µM and 1.58 µM | 26.2 µM and 5.01 µM | 13.2 µM and > 10 µM | 28.6 µM and > 10 µM | 25 µM and > 10 µM | 10.5 µM and > 10 µM | 24.3 µM and > 10 µM | 10.3 µM and 5.17 µM | 22.6 µM and > 10 µM | 15.9 µM and > 10 µM | 31.6 µM and > 10 µM | 12.6 µM and > 10 µM | 25.8 µM and > 10 µM | 10.8 µM and > 10 µM
5 | CC1=C([Te]c2ccccc2)C(=O)c2ccccc2C1=O | 0.146 µM | 1.03 µM | 0.424 µM | 1.58 µM | 0.457 µM | 1.45 µM | 0.799 µM | 2.03 µM | 0.909 µM | 4.24 µM | 0.943 µM | 1.79 µM | 3.56 µM | 0.232 µM | 0.842 µM | 0.298 µM | 1.23 µM | 0.24 µM | 0.697 µM | 0.249 µM
6 | CC1(C)Oc2ccc3ccc(=O)oc3c2C(O)C1O (centres undefined) |  | 47.8 µM |  | > 100 µM |  | 45.1 µM |  | 29.4 µM |  | > 100 µM | > 100 µM |  | > 100 µM |  | 60.9 µM |  | > 100 µM |  | > 100 µM | 
7 | CCC(CC)n1cnc2c(-c3cnc(N)cn3)nc(N3CC4CCC(C3)O4)nc21 | 0.51 µM | 4.19 µM | 0.93 µM | > 100 µM | 0.269 µM | > 83 µM | 0.138 µM | 1.21 µM | 0.209 µM | > 100 µM | > 100 µM | 0.0472 µM | 0.688 µM | 0.108 µM | 2.5 µM | 0.405 µM | > 100 µM | 0.173 µM | 1.59 µM | 0.156 µM
8 | COc1cc2nc(N3CCCN(C)CC3)nc(NC3CCN(Cc4ccccc4)CC3)c2cc1OC | 1.68 µM | 3.33 µM | 2.86 µM | 9.38 µM | 1.84 µM | 3.51 µM | 1.73 µM | 3.14 µM | 2.02 µM | 4.22 µM | 7.65 µM | 1.87 µM | 3.37 µM | 1.94 µM | 4.68 µM | 2.94 µM | 10.2 µM | 1.81 µM | 3.46 µM | 2.08 µM
9 | COc1ccc2c(c1)CCC1C2CC[C@@]2(C)C1CC[C@@H]2NC(=O)Cc1ccc(O)c(O)c1 (some centres undefined) | 4.84 µM | 17.3 µM | 8.47 µM | 20.8 µM | 3.34 µM | 12.5 µM | 8.96 µM | 21.8 µM | 1.9 µM | 4.25 µM | 32.1 µM | 9.13 µM | 41 µM | 9.66 µM | 25.5 µM | 14.6 µM | 29.9 µM | 13.4 µM | 32.1 µM | 11.2 µM
10 | CC(=O)O.CN1[CH-]N(Cc2ccc(C#N)cc2)c2ccccc21.[Ag+] | 43.7 µM | > 100 µM | 17.7 µM | 32.6 µM | 10.3 µM | 31.5 µM | 12.7 µM | 27.6 µM | 14.5 µM | 82.4 µM | 51.7 µM | 19.8 µM | 41.5 µM | 18.8 µM | 38.4 µM | 32.3 µM | > 100 µM | 82.3 µM | > 100 µM | 17.8 µM
11 | O=C(O)Cc1cccc2c(=O)cc(-c3ccccc3)oc12 | 398 µM | > 250 µM and 838 µM | > 250 µM | > 1000 µM | 636 µM | > 1000 µM | 407 µM | 250 µM and > 876 µM | 285 µM | 250 µM and > 773 µM | 250 µM and > 1000 µM | 725 µM | > 1000 µM | > 1000 µM | 250 µM and > 1000 µM | 728 µM | 250 µM and > 1000 µM | 400 µM | 250 µM and > 1000 µM | 581 µM
12 | O=C(O)c1cccc(S(=O)(=O)NCCO)c1 |  | > 100 µM |  | > 100 µM |  | > 100 µM |  | > 100 µM |  | > 100 µM | > 100 µM |  | > 100 µM |  | > 100 µM |  | > 100 µM |  | > 100 µM | 
13 | Cc1ccc(OP(=O)(Oc2ccc(C)cc2)N2C=Cc3ccccc3C2C#N)cc1 (centres undefined) |  | > 100 µM |  | > 100 µM |  | > 100 µM |  | > 100 µM |  | > 100 µM | > 100 µM |  | > 100 µM |  | > 100 µM |  | > 100 µM |  | > 100 µM | 
